Legend:
[1] = test system: antibodies from Rabbit No. 1 produced in response to immunization with AZT-3-V:BSA; experiment: Fluorescence polarization immunoassay (FPIA) for AZT, standard curve; type: binding; conditions: tracer AZT-3-B:FAM Isomer I, zero standard 166
Protocol: (§1) The immunogen (1 mg in 1 ml) was emulsified with an equal volume of Freund's Complete Adjuvant and injected intradermally into each of two female albino rabbits. The process was repeated in two weeks. Two weeks later, monthly subcutaneous booster injections were begun with 0.5 mg in 0.5 ml of the immunogen and 0.5 ml of Freund's Incomplete Adjuvant per animal. The rabbits were bled biweekly by a marginal ear vein technique beginning six weeks after the primary immunization. The blood collected was refrigerated, allowing clots to form, and the supernatant (antiserum) retained. The antiserum from each rabbit was collected and stored, either at -20° C. without preservative, or at 4° C. after addition of sodium azide to a final concentration of 0.1%. The same schedule was followed for each immunogen. Rabbits immunized produced antibodies to AZT.
Fluorescence Polarization Immunoassay for AZT
The following procedure illustrates the use of various materials of the invention in a preferred FPIA method.
(§2) An equal volume of precipitation reagent was added per microcentrifuge tube. The tubes were centrifuged at greater than 9,000×g for 1 minute.
(§3) (2) A 17.5 ul sample of each serum extract was brought to approximately pH 7-8 by the addition of buffer.
(§4) (4) After an appropriate incubation time, the polarization of each reaction mixture was determined using a polarization spectrofluorimeter.

AZT antibodies = experiment: Immunological activity / tracer performance in FPIA for AZT (qualitative); type: binding; conditions: qualitative
Protocol: as §2, §3, §4

[2] = test system: antibodies from Rabbit No. 2 produced in response to immunization with AZT-3-V:BSA; experiment: AZT microtiter plate enzyme immunoassay (EIA); type: binding; conditions: tracer AZT-3-V:HRPO; for Net Absorbence (B): zero standard 0.367
Protocol: as §1
To each well of a 96 well microtiter plate was added 100 ul of diluted rabbit antibodies (Example 45) to AZT-3-V:BSA prepared via active ester (Example 4) previously fractionated with ammonium sulfate. After incubation overnight, the plate was washed and 300 ul of diluted normal rabbit serum was added to each well to block any unbound sites on the plastic surface of the microtiter plate. The plate was again washed and the excess moisture removed. […] The plate was incubated for 60 minutes at room temperature. The plate was then washed and 300 ul of diluted o-phenylenediaminehydrogen peroxide substrate solution was added to each well. The color was allowed to develop for 90 minutes at room temperature in the dark. Absorbances were then measured spectrophotometrically for each well.

[3] = at high dosage levels; cited from earlier work

Cc1cn([C@H]2C[C@H](N=[N+]=[N-])[C@@H](CO)O2)c(=O)[nH]c1=O (single isomer, unassigned) [AZT, 3'-azido-3'-deoxythymidine]
Polarization Units (P × 1000) ([1]; AZT 0.2 uM): 155 P × 1000 | Polarization Units (P × 1000) ([1]; AZT 0.6 uM): 141 P × 1000 | Polarization Units (P × 1000) ([1]; AZT 1.7 uM): 118 P × 1000 | Polarization Units (P × 1000) ([1]; AZT 5.0 uM): 87 P × 1000 | Polarization Units (P × 1000) ([1]; AZT 14.7 uM): 61 P × 1000 | immunological activity in FPIA for AZT (AZT antibodies): immunologically active | % B/Bo ([2]; AZT 0.1 ng/ml): 88% | Net Absorbence (B) ([2]; AZT 0.1 ng/ml): 0.323 | % B/Bo ([2]; AZT 0.4 ng/ml): 74% | Net Absorbence (B) ([2]; AZT 0.4 ng/ml): 0.273 | % B/Bo ([2]; AZT 1.6 ng/ml): 56% | Net Absorbence (B) ([2]; AZT 1.6 ng/ml): 0.205 | % B/Bo ([2]; AZT 6.3 ng/ml): 41% | Net Absorbence (B) ([2]; AZT 6.3 ng/ml): 0.149 | % B/Bo ([2]; AZT 25.3 ng/ml): 23% | Net Absorbence (B) ([2]; AZT 25.3 ng/ml): 0.085 | % B/Bo ([2]; AZT 101.1 ng/ml): 12% | Net Absorbence (B) ([2]; AZT 101.1 ng/ml): 0.044 | side effects [3]: serious side effects at high dosage levels

— US5380825A (Sigma Chemical Company, priority 1991, dated 1995)
